Assay results as given in patent US20250051277A1, “DELIVERY OF THERAPEUTIC ALKALOID COMPOUNDS” (Sensorium Therapeutics, Inc., priority 2021, published 2025).
Like-named read-outs stand apart in the source and are kept apart here.

Experiments:
[1] = 10 μM
Method: (§1) 50 μL aliquots of positive controls and test compounds spiked into rat or human plasma (n=2) were added to a pre-warmed plate (37° C.) and shaken at 50 rpm. At each respective time point, the reaction was stopped by adding 500 μL of acetonitrile containing internal standards (100 nM aprozolam, 200 nM caffeine, 100 nM tolbutamide). All samples were vortexed for 10 minutes, followed by centrifugation at 3,220 g for 30 minutes to precipitate proteins. 100 μL of the supernatant is transferred to a new plate. The supernatant will be diluted with ultrapure water according to the LC-MS signal response and peak shape.

[2] = 10 μM; remark: listed apart in the source
Method: as §1

| Compound | Prodrug (%) remaining, Rat Plasma ([1]; 0 h) [%] | Prodrug (%) remaining, Rat Plasma ([1]; 10 min) [%] | Prodrug (%) remaining, Rat Plasma ([1]; 0.5 h) [%] | Prodrug (%) remaining, Rat Plasma ([1]; 1 h) [%] | Prodrug (%) remaining, Rat Plasma ([1]; 2 h) [%] | Prodrug (%) remaining, Rat Plasma ([1]; 4 h) [%] | Prodrug (%) remaining, Human Plasma ([2]; 0 h) [%] | Prodrug (%) remaining, Human Plasma ([2]; 10 min) [%] | Prodrug (%) remaining, Human Plasma ([2]; 0.5 h) [%] | Prodrug (%) remaining, Human Plasma ([2]; 1 h) [%] | Prodrug (%) remaining, Human Plasma ([2]; 2 h) [%] | Prodrug (%) remaining, Human Plasma ([2]; 4 h) [%] |
| --- | --- | --- | --- | --- | --- | --- | --- | --- | --- | --- | --- | --- |
| CCCCCCCC(=O)OC1=C[C@@H]2N(C)CC[C@]2(c2ccc(OC)c(OC)c2)CC1 [Compound 395, (3aS,7aS)-3a-(3,4-dimethoxyphenyl)-1-methyl-2,3,3a,4,5,7a-hexahydro-1H-indol-6-yl octanoate] | 100.0 | 0.3 | 0.1 | 0.1 | 0.1 | 0.1 | 100.0 | 13.9 | 3.5 | 1.1 | 0.3 | 0.1 |
| COc1ccc([C@@]23CCC(OC(=O)CCC(C)C)=C[C@@H]2N(C)CC3)cc1OC [Compound 399, (3aS,7aS)-3a-(3,4-dimethoxyphenyl)-1-methyl-2,3,3a,4,5,7a-hexahydro-1H-indol-6-yl4-methylpentanoate] | 100.0 | 0.0 | 0.0 | 0.0 | 0.0 | 0.0 | 100.0 | 5.6 | 1.1 | 0.5 | 0.3 | 0.2 |
| CCCC(CCC)C(=O)OC1=C[C@@H]2N(C)CC[C@]2(c2ccc(OC)c(OC)c2)CC1 [Compound 427, (3aS,7aS)-3a-(3,4-dimethoxyphenyl)-1-methyl-2,3,3a,4,5,7a-hexahydro-1H-indol-6-yl2-propylpentanoate] | 100.0 | 93.6 | 73.4 | 43.9 | 16.0 | 2.3 | 100.0 | >99 | 96.6 | 96.9 | 95.5 | 91.2 |
| COc1ccc([C@@]23CCC(OC(=O)CCN)=C[C@@H]2N(C)CC3)cc1OC [Compound 397, (3aS,7aS)-3a-(3,4-dimethoxyphenyl)-1-methyl-2,3,3a,4,5,7a-hexahydro-1H-indol-6-yl3-aminopropanoate] | 100.0 | 10.5 | 0.5 | 0.1 | 0.1 | 0.1 | 100.0 | 2.2 | 0.5 | 0.1 | 0.2 | 0.0 |
| COCCOCCC(=O)OC1=C[C@@H]2N(C)CC[C@]2(c2ccc(OC)c(OC)c2)CC1 [Compound 405, (3aS,7aS)-3a-(3,4-dimethoxyphenyl)-1-methyl-2,3,3a,4,5,7a-hexahydro-1H-indol-6-yl3-(2-methoxyethoxy)propanoate] | 100.0 | 0.1 | 0.0 | 0.1 | 0.0 | 0.0 | 100.0 | >99 | 95.0 | 87.0 | 65.7 | 46.7 |
| CCCC(CC)CC(=O)OC1=C[C@@H]2N(C)CC[C@]2(c2ccc(OC)c(OC)c2)CC1 (stereo partly drawn) [Compound 398, (3aS,7aS)-3a-(3,4-dimethoxyphenyl)-1-methyl-2,3,3a,4,5,7a-hexahydro-1H-indol-6-yl3-ethylhexanoate] | 100.0 | 2.8 | 0.7 | 0.1 | 0.0 | 0.0 | 100.0 | 96.4 | 85.0 | 72.4 | 51.6 | 25.5 |
| CCC(C)C(=O)OC1=C[C@@H]2N(C)CC[C@]2(c2ccc(OC)c(OC)c2)CC1 (stereo partly drawn) [Compound 425, (3aS,7aS)-3a-(3,4-dimethoxyphenyl)-1-methyl-2,3,3a,4,5,7a-hexahydro-1H-indol-6-yl2-methylbutanoate] | 100.0 | 4.4 | 0.1 | 0.0 | 0.0 | 0.0 | 100.0 | 6.5 | 4.8 | 4.0 | 3.0 | 1.9 |
| COCCCCC(=O)OC1=C[C@@H]2N(C)CC[C@]2(c2ccc(OC)c(OC)c2)CC1 [Compound 404, (3aS,7aS)-3a-(3,4-dimethoxyphenyl)-1-methyl-2,3,3a,4,5,7a-hexahydro-1H-indol-6-yl5-methoxypentanoate] | 100.0 | 0.3 | 0.3 | 0.3 | 0.3 | 0.2 | 100.0 | 22.9 | 11.5 | 7.6 | 3.8 | 1.6 |
| CCCC(C)C(=O)OC1=C[C@@H]2N(C)CC[C@]2(c2ccc(OC)c(OC)c2)CC1 (stereo partly drawn) [Compound 402, (3aS,7aS)-3a-(3,4-dimethoxyphenyl)-1-methyl-2,3,3a,4,5,7a-hexahydro-1H-indol-6-yl2-methylpentanoate] | 100.0 | 3.5 | 0.1 | 0.0 | 0.0 | 0.0 | 100.0 | 11.3 | 2.9 | 2.1 | 1.6 | 1.1 |
| CCC(C)(C)C(=O)OC1=C[C@@H]2N(C)CC[C@]2(c2ccc(OC)c(OC)c2)CC1 [Compound 428, (3aS,7aS)-3a-(3,4-dimethoxyphenyl)-1-methyl-2,3,3a,4,5,7a-hexahydro-1H-indol-6-yl2,2-dimethylbutanoate] | 100.0 | 90.3 | 69.9 | 41.7 | 18.1 | 3.9 | 100.0 | 82.9 | 74.5 | 69.1 | 56.8 | 46.0 |
| COc1ccc([C@@]23CCC(OC(=O)c4c(C)cc(C)cc4C)=C[C@@H]2N(C)CC3)cc1OC [Compound 356, (3aS,7aS)-3a-(3,4-dimethoxyphenyl)-1-methyl-2,3,3a,4,5,7a-hexahydro-1H-indol-6-yl2,4,6-trimethylbenzoate] | 100.0 | >99 | >99 | >99 | >99 | 95.8 | 100.0 | >99 | >99 | >99 | >99 | >99 |
| COc1ccc([C@@]23CCC(OC(=O)CC(C)(C)C)=C[C@@H]2N(C)CC3)cc1OC [Compound 431, (3aS,7aS)-3a-(3,4-dimethoxyphenyl)-1-methyl-2,3,3a,4,5,7a-hexahydro-1H-indol-6-yl3,3-dimethylbutanoate] | 100.0 | 74.5 | 45.7 | 16.5 | 2.3 | 0.2 | 100.0 | 82.1 | 69.0 | 62.8 | 52.6 | 37.4 |
| CCCCC(CC)C(=O)OC1=C[C@@H]2N(C)CC[C@]2(c2ccc(OC)c(OC)c2)CC1 (stereo partly drawn) [Compound 401, (3aS,7aS)-3a-(3,4-dimethoxyphenyl)-1-methyl-2,3,3a,4,5,7a-hexahydro-1H-indol-6-yl2-ethylhexanoate] | 100.0 | 84.5 | 55.8 | 33.8 | 16.3 | 3.3 | 100.0 | 95.9 | >99 | 96.6 | 94.4 | 93.4 |
